Among the data in patent US12655130B2 (ASSEMBLY BIOSCIENCES, INC., priority 2020, dated 2026) are EC50 values, retold here.

The subject of the experiment is HBV viral load (viral production from HepAD38 cells). Kind of experiment: Activity of test compounds on viral production from HepAD38 cells (viral load by qPCR of HBV core sequence). Format: cell-based. The following applies: Hepatitis B virus, HePAD38, 120 h, viral load lowering, 5 days, qPCR of supernatant, read-out: VL HepAD38 EC50 range. Put shortly: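 HepAD38 cells seeded at 50,000/well in tetracycline-free medium with 2% FBS, treated 5 days at 37 °C with compounds from 10 μM top concentration. Supernatant HBV DNA quantified by TaqMan qPCR of core sequence against HBV DNA standards, relative to DMSO wells; viability by CellTiter-Glo; EC50/CC50 by four-parameter logistic fit.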
Regarding `CN(C)c1ccn(CC2(O)CC3CC(c4ncn(C)c4C(=O)Nc4ccc(F)c(Cl)c4)CC3C2)n1` (stereo not drawn) [Example 96, N-(3-chloro-4-fluorophenyl)-4-(5-((3-(dimethylamino)-1H-pyrazol-1-yl)methyl)-5-hydroxyoctahydropentalen-2-yl)-1-methyl-1H-imidazole-5-carboxamide], the EC50 – broadly, the concentration that produces a half-maximal response – is below 10 nM.
With `Cn1cnc(C2CC3CC(O)(c4c(F)c(N)nn4C)CC3C2)c1C(=O)Nc1ccc(F)c(Cl)c1` (stereo not drawn) [Example 52, 4-(5-(3-Amino-4-fluoro-1-methyl-1H-pyrazol-5-yl)-5-hydroxyoctahydropentalen-2-yl)-N-(3-chloro-4-fluorophenyl)-1-methyl-1H-imidazole-5-carboxamide] the figure was below 10 nM.
The figure for `Cn1cc(C2(O)CC3CC(c4ncn(C)c4C(=O)Nc4ccc(F)c(Cl)c4)CC3C2)c(C(N)=O)n1` (stereo not drawn) [Example 178, 4-(5-(5-((3-Chloro-4-fluorophenyl)carbamoyl)-1-methyl-1H-imidazol-4-yl)-2-hydroxyoctahydropentalen-2-yl)-1-methyl-1H-pyrazole-3-carboxamide] is below 10 nM; for `CNc1nc(C2CC3CC(O)CC3C2)c(C(=O)Nc2ccc(F)c(Cl)c2)n1C` (stereo not drawn) [Example 30, N-(3-Chloro-4-fluorophenyl)-4-(5-hydroxyoctahydropentalen-2-yl)-1-methyl-2-(methylamino)-1H-imidazole-5-carboxamide] it is below 10 nM.
The figure for `Cn1c(N)nc(C2CC3CC(O)CC3C2)c1C(=O)Nc1ccc(F)c(Cl)c1` (stereo not drawn) [Example 28, 2-Amino-N-(3-chloro-4-fluorophenyl)-4-(5-hydroxyoctahydropentalen-2-yl)-1-methyl-1H-imidazole-5-carboxamide] is below 10 nM.
As to `Cn1cnc(C2CC3CC(N4CCOCC4)CC3C2)c1C(=O)Nc1ccc(F)c(Cl)c1` (stereo not drawn) [Example 47, 5-[-5-(4-Morpholinyl)-1,2,3,3a,4,5,6,6a-octahydropentalen-2-yl]-N-(3-chloro-4-fluorophenyl)-3-methyl-4-imidazolecarboxamide], the EC50 is 50 to 500 nM.
On to `Cn1cc(C(F)(F)F)c(C2(O)CC3CC(c4ncn(C)c4C(=O)Nc4ccc(F)c(Cl)c4)CC3C2)n1` (stereo not drawn) [Example 156, N-(3-Chloro-4-fluorophenyl)-4-(5-hydroxy-5-(1-methyl-4-(trifluoromethyl)-1H-pyrazol-3-yl)octahydropentalen-2-yl)-1-methyl-1H-imidazole-5-carboxamide], for which the EC50 was below 10 nM.
With `CC(C)n1nc([N+](=O)[O-])cc1C1(O)CC2CC(c3ncn(C)c3C(=O)Nc3ccc(F)c(Cl)c3)CC2C1` (stereo not drawn) [Example 164, N-(3-Chloro-4-fluorophenyl)-4-(5-hydroxy-5-(1-isopropyl-3-nitro-1H-pyrazol-5-yl)octahydropentalen-2-yl)-1-methyl-1H-imidazole-5-carboxamide] the figure was below 10 nM.
With `Cn1cnc(C2CC3CC(N)CC3C2)c1C(=O)Nc1ccc(F)c(Cl)c1` (stereo not drawn) [Example 13, 4-(5-Aminooctahydropentalen-2-yl)-N-(3-chloro-4-fluorophenyl)-1-methyl-1H-imidazole-5-carboxamide] the figure was 10 to 50 nM.
With `CC(C)Oc1cc(C2(O)CC3CC(c4ncn(C)c4C(=O)Nc4ccc(F)c(Cl)c4)CC3C2)n(C)n1` (stereo not drawn) [Example 54, N-(3-Chloro-4-fluorophenyl)-4-(5-hydroxy-5-(3-isopropoxy-1-methyl-1H-pyrazol-5-yl)octahydropentalen-2-yl)-1-methyl-1H-imidazole-5-carboxamide] the figure was below 10 nM.
For the compound `CC(C)c1cc(C2(O)CC3CC(c4ncn(C)c4C(=O)Nc4ccc(F)c(Cl)c4)CC3C2)n(C)n1` (stereo not drawn) [Example 94, N-(3-chloro-4-fluorophenyl)-4-(5-hydroxy-5-(3-isopropyl-1-methyl-1H-pyrazol-5-yl)octahydropentalen-2-yl)-1-methyl-1H-imidazole-5-carboxamide], the EC50 was below 10 nM.
The figure for `CNS(=O)(=O)Nc1cc(C2(O)CC3CC(c4ncn(C)c4C(=O)Nc4ccc(F)c(Cl)c4)CC3C2)n(C)n1` (stereo not drawn) [Example 201, N-(3-Chloro-4-fluorophenyl)-4-(5-hydroxy-5-(1-methyl-3-((N-methylsulfamoyl)amino)-1H-pyrazol-5-yl)octahydropentalen-2-yl)-1-methyl-1H-imidazole-5-carboxamide] is below 10 nM.
The figure for `CCn1nc(C(F)F)cc1C1(O)CC2CC(c3ncn(C)c3C(=O)Nc3ccc(F)c(F)c3)CC2C1` (stereo not drawn) [Example 177, 4-(5-(3-(Difluoromethyl)-1-ethyl-1H-pyrazol-5-yl)-5-hydroxyoctahydropentalen-2-yl)-N-(3,4-difluorophenyl)-1-methyl-1H-imidazole-5-carboxamide] is below 10 nM.
Regarding `Cn1cnc(C2CC3CC(O)(c4c(C#N)cnn4C)CC3C2)c1C(=O)Nc1ccc(F)c(Cl)c1` (stereo not drawn) [Example 125, N-(3-chloro-4-fluorophenyl)-4-(5-(4-cyano-1-methyl-1H-pyrazol-5-yl)-5-hydroxyoctahydropentalen-2-yl)-1-methyl-1H-imidazole-5-carboxamide], the EC50 is below 10 nM.
Turning to `CCn1cc(C2(O)CC3CC(c4ncn(C)c4C(=O)Nc4ccc(F)c(Cl)c4)CC3C2)c(C(F)F)n1` (stereo not drawn) [Example 162, N-(3-Chloro-4-fluorophenyl)-4-(5-(3-(difluoromethyl)-1-ethyl-1H-pyrazol-4-yl)-5-hydroxyoctahydropentalen-2-yl)-1-methyl-1H-imidazole-5-carboxamide], the EC50 is below 10 nM.
With `Cn1cnc(C2CC3CC(O)(c4ccccc4)CC3C2)c1C(=O)Nc1ccc(F)c(Cl)c1` (stereo not drawn) [Example 8, N-(3-Chloro-4-fluorophenyl)-4-(5-hydroxy-5-phenyloctahydropentalen-2-yl)-1-methyl-1H-imidazole-5-carboxamide] the figure was below 10 nM; with `CCn1ncc(C2(O)CC3CC(c4ncn(C)c4C(=O)Nc4ccc(F)c(Cl)c4)CC3C2)c1C(F)(F)F` (stereo not drawn) [Example 174, N-(3-Chloro-4-fluorophenyl)-4-(5-(1-ethyl-5-(trifluoromethyl)-1H-pyrazol-4-yl)-5-hydroxyoctahydropentalen-2-yl)-1-methyl-1H-imidazole-5-carboxamide], below 10 nM; with `Cn1cnc(C2CC3CC(O)(c4cc(C(C)(C)C(F)(F)F)nn4C)CC3C2)c1C(=O)Nc1ccc(F)c(Cl)c1` (stereo not drawn) [Example 105, N-(3-chloro-4-fluorophenyl)-4-(5-hydroxy-5-(1-methyl-3-(1,1,1-trifluoro-2-methylpropan-2-yl)-1H-pyrazol-5-yl)octahydropentalen-2-yl)-1-methyl-1H-imidazole-5-carboxamide], below 10 nM.
With `O=C(Nc1ccc(F)c(Cl)c1)c1ocnc1C1CC2CC(O)CC2C1` (stereo not drawn) [Example 36, N-(3-Chloro-4-fluorophenyl)-4-(5-hydroxyoctahydropentalen-2-yl)oxazole-5-carboxamide] the figure was 50 to 500 nM.
With `Cn1cnc(C2CC3CC(O)CC3C2)c1C(=O)Nc1ccc(F)c(Cl)c1` (single isomer, unassigned) [Example 2, N-(3-Chloro-4-fluorophenyl)-4-(5-hydroxyoctahydropentalen-2-yl)-1-methyl-1H-imidazole-5-carboxamide] the figure was below 10 nM.
As for `Cn1cnc(C2CC3CC(O)(Cc4c(Br)cnn4C)CC3C2)c1C(=O)Nc1ccc(F)c(Cl)c1` (stereo not drawn) [Example 123, 4-(5-((4-bromo-1-methyl-1H-pyrazol-5-yl)methyl)-5-hydroxyoctahydropentalen-2-yl)-N-(3-chloro-4-fluorophenyl)-1-methyl-1H-imidazole-5-carboxamide], the 50% effective concentration (EC50) is below 10 nM.
